In article PMC11995724, “Antibiotic target discovery by integrated phenotypic and activity-based profiling of electrophilic fragments” (Cell chemical biology, 2025):

experiment: in vitro; settings: human, hek293t cells

Point of comparison: CC(Cl)C(=O)Nc1cccc([N+](=O)[O-])c1 (stereo not drawn) [6-E08, 2-chloro-N-(3-nitrophenyl)propanamide], viability at 48 h, 25 µM 98.7%. Against it:
- Cc1nc(C)n(C2CCCN(C(=O)C(C)Cl)C2)n1 (stereo not drawn) [7-P13, 2-chloro-1-[3-(3,5-dimethyl-1H-1,2,4-triazol-1-yl)piperidin-1-yl]propan-1-one] — lower, 92.3%
- O=C(CCl)NCCc1cnn(-c2ccccc2)c1 [6-G22, 2-chloro-N-[2-(1-phenyl-1H-pyrazol-4-yl)ethyl]acetamide] — lower, 1.31%
- CC(Cl)C(=O)N1CCc2ncsc2C1 (stereo not drawn) [7-C06, 2-chloro-1-{4H,5H,6H,7H-[1,3]thiazolo[5,4-c]pyridin-5-yl}propan-1-one] — lower, 92.6%
- N#CC(=Cc1ccc(-c2cccc([N+](=O)[O-])c2)s1)C(=O)NC1CC1 [9-G18, 2-cyano-N-cyclopropyl-3-[5-(3-nitrophenyl)thiophen-2-yl]prop-2-enamide] — higher, 103%
- NS(=O)(=O)c1ccc(CNC(=O)CCl)cc1 [4-P12, 2-chloro-N-[(4-sulfamoylphenyl)methyl]acetamide] — lower, 0.879%
- Cn1c(=O)oc2cc(C(=O)CCl)ccc21 [10-F07, 6-(2-chloroacetyl)-3-methyl-2,3-dihydro-1,3-benzoxazol-2-one] — higher, 110%
- C=CC(=O)N1CCC(c2nc(N(C)C)no2)CC1 [2-K09, 1-{4-[3-(dimethylamino)-1,2,4-oxadiazol-5-yl]piperidin-1-yl}prop-2-en-1-one] — higher, 194%
- O=C(CCl)N1CCCC1c1ccccc1 (stereo not drawn) [6-M19, 2-chloro-1-(2-phenylpyrrolidin-1-yl)ethan-1-one] — lower, 0.923%
- C=CC(=O)N(Cc1cc(C)c2ncccc2c1)C(C)C1CCCO1 (stereo not drawn) [1-P15, N-[(8-methylquinolin-6-yl)methyl]-N-[1-(oxolan-2-yl)ethyl]prop-2-enamide] — lower, 93.5%
- CCOC=C(C#N)C(=O)N1CCN(S(=O)(=O)c2cc[nH]n2)CC1 [9-D06, 3-ethoxy-2-[4-(1H-pyrazole-3-sulfonyl)piperazine-1-carbonyl]prop-2-enenitrile] — higher, 110%
- CC(c1cccc(NC(=O)c2ccccc2)c1)N(C)C(=O)CCl (stereo not drawn) [6-M22, N-{3-[1-(2-chloro-N-methylacetamido)ethyl]phenyl}benzamide] — lower, 0.237%
- Cc1cc(C(=O)CCl)c(C)n1Cc1ccccc1 [10-M14, 1-(1-benzyl-2,5-dimethyl-1H-pyrrol-3-yl)-2-chloroethan-1-one] — lower, 78.4%
- N#CC(=Cc1cccs1)C(=O)Nc1ccc(C(=O)O)cc1 [8-A04, 4-[2-cyano-3-(thiophen-2-yl)prop-2-enamido]benzoic acid] — lower, 71.7%
- NC(=O)Nc1ccc(C(=O)CCl)cc1 [10-J07, [4-(2-chloroacetyl)phenyl]urea] — higher, 108%
- COc1ccccc1N(CC(F)(F)F)C(=O)CCl [4-C18, 2-chloro-N-(2-methoxyphenyl)-N-(2,2,2-trifluoroethyl)acetamide] — lower, 7.84%
- CC(NC(=O)C(C#N)=Cc1cc(O)ccc1[N+](=O)[O-])c1ccccc1 (stereo not drawn) [9-D15, 2-cyano-3-(5-hydroxy-2-nitrophenyl)-N-(1-phenylethyl)prop-2-enamide] — higher, 101%
- CC(C)c1ccc(CCNC(=O)CCl)cc1 [6-I16, 2-chloro-N-{2-[4-(propan-2-yl)phenyl]ethyl}acetamide] — lower, 71%
- C=CC(=O)NCC(OC)C1CCOC1 (stereo not drawn) [3-L19, N-[2-methoxy-2-(oxolan-3-yl)ethyl]prop-2-enamide] — lower, 85.8%
- CC(Cl)C(=O)Nc1ccc(-c2c[nH]cn2)cc1 (stereo not drawn) [5-F08, 2-chloro-N-[4-(1H-imidazol-4-yl)phenyl]propanamide] — lower, 98.2%
- C=CC(=O)N1CCC(C(=O)N[C@@H](C)C(=O)NC)(c2ccccc2)CC1 [2-B16, (2S)-N-methyl-2-{[4-phenyl-1-(prop-2-enoyl)piperidin-4-yl]formamido}propanamide] — lower, 87%
- CC(Cl)C(=O)N1CCC(Cc2ccncc2)C1 (stereo not drawn) [6-N11, 2-chloro-1-{3-[(pyridin-4-yl)methyl]pyrrolidin-1-yl}propan-1-one] — higher, 106%
- C=CC(=O)NCCC(=O)N1CCN(c2nc(C)cs2)CC1 [3-F07, N-{3-[4-(4-methyl-1,3-thiazol-2-yl)piperazin-1-yl]-3-oxopropyl}prop-2-enamide] — lower, 52.1%
- CC(C)(CNC(=O)CCl)CC1CCOCC1 [6-C04, 2-chloro-N-[2,2-dimethyl-3-(oxan-4-yl)propyl]acetamide] — higher, 130%
- C=CC(=O)NCCC(=O)N1CCC(c2ncccn2)CC1 [3-M17, N-{3-oxo-3-[4-(pyrimidin-2-yl)piperidin-1-yl]propyl}prop-2-enamide] — lower, 62.4%
- CCOc1ccc2nc(NC(=O)CCl)sc2c1 [4-L10, 2-chloro-N-(6-ethoxy-1,3-benzothiazol-2-yl)acetamide] — lower, 0.621%
- C=CC(=O)N1CCC(C(=O)NCc2ccc(S(N)(=O)=O)cc2)CC1 [3-N10, 1-(prop-2-enoyl)-N-[(4-sulfamoylphenyl)methyl]piperidine-4-carboxamide] — lower, 85.1%
- N#CC(=Cc1ccc(C#N)cc1)C(=O)Nc1cccc2ccccc12 [8-O16, 2-cyano-3-(4-cyanophenyl)-N-(naphthalen-1-yl)prop-2-enamide] — lower, 38.3%
- C=CC(=O)Nc1ccnn1C(C)C [2-O07, N-[1-(propan-2-yl)-1H-pyrazol-5-yl]prop-2-enamide] — higher, 101%
- CC(Cl)C(=O)N1CCc2c(nnn2C)C1 (stereo not drawn) [7-G22, 2-chloro-1-{1-methyl-1H,4H,5H,6H,7H-[1,2,3]triazolo[4,5-c]pyridin-5-yl}propan-1-one] — lower, 80.5%
- CCCc1ccc(NC(=O)CCl)cc1 [6-I22, 2-chloro-N-(4-propylphenyl)acetamide] — lower, 0.417%
- CC(Cl)C(=O)NC(C)(C(N)=O)c1cccc(Cl)c1 (stereo not drawn) [5-J17, 2-(3-chlorophenyl)-2-(2-chloropropanamido)propanamide] — higher, 125%
- CC(=O)NCCc1cc(C(=O)CCl)ccc1F [10-O05, N-{2-[5-(2-chloroacetyl)-2-fluorophenyl]ethyl}acetamide] — lower, 37.8%
- C=CC(=O)N1CCC(NC(C)=O)C1 (stereo not drawn) [1-B19, N-[1-(prop-2-enoyl)pyrrolidin-3-yl]acetamide] — higher, 114%
- COc1ccc(CN(C)C(=O)CCl)cc1 [6-M15, 2-chloro-N-[(4-methoxyphenyl)methyl]-N-methylacetamide] — lower, 0.805%
- O=C(CCl)Nc1ccc(OC(F)F)c(Cl)c1 [4-F14, 2-chloro-N-[3-chloro-4-(difluoromethoxy)phenyl]acetamide] — lower, 0.982%
- Cc1ccccc1NC(=O)C(C#N)=Cc1ccccc1Cl [8-N05, 3-(2-chlorophenyl)-2-cyano-N-(2-methylphenyl)prop-2-enamide] — lower, 47.9%
- C=CC(=O)N1CCC(C(=O)NC2CCc3ncnn3C2)CC1 (stereo not drawn) [2-P20, 1-(prop-2-enoyl)-N-{5H,6H,7H,8H-[1,2,4]triazolo[1,5-a]pyridin-6-yl}piperidine-4-carboxamide] — lower, 98%
- CCCCNC(=O)C(C#N)=Cc1ccc2c(c1)OCCO2 [9-G11, N-butyl-2-cyano-3-(2,3-dihydro-1,4-benzodioxin-6-yl)prop-2-enamide] — higher, 106%
